Our source for the Actual effective value values is patent publication US8980885B2, “Plant disease controlling composition and method for controlling plant disease” (Sumitomo Chemical Company, Limited, priority 2008, dated 2015).

The subject of this assay is Sclerotinia sclerotiorum. Nature of the assay: Controlling test against Sclerotinia sclerotiorum on cucumber by foliage spraying (Test Example 1). It is filed as in vivo. As to conditions: single compound, 12° C., high humidity, 6 days. On the procedure: A sand loam was charged into a plastic pot, and cucumber (Sagamihanjiro) was seeded, and grown in a greenhouse for 12 days. A flowable of the compound I, and a flowable comprising any one of the compound II-i, the compound II-ii, the compound III, the compound IV, the compound V and the compound VI were diluted with water separately, and they were tank-mixed to prepare a tank mix solution having each predetermined concentration. The tank mix solution was subjected to foliage spraying so that it was sufficiently adhered to a leaf surface of the cucumber. After spraying, the plant was air-dried, and a PDA medium containing hyphae of Sclerotinia sclerotiorum was placed on the cucumber leaf surface. After seeding, this was placed under 12° C. and the high humidity for 6 days, the controlling effect was investigated. Separately, for comparison, each of the flowables was diluted with water to prepare a water-diluted solution of compounds I to VI having the predetermined concentration, and the similar controlling test was carried out. Further, for calculating a effective value, an onset area rate (ratio of onset area occupied in leaf area examined) in each treatment group was determined. The effective value was calculated by the Equation 1. […] A: Onset area rate of non-treated group B: Onset area rate of treated group In general, an effective value expected in treatment by mixing given two kinds of active ingredient compounds, i.e., an expected effective value is calculated by a Colby calculation equation of the Equation 2. E=X+Y−(X×Y)/100 “Equation 2” X: Effective value obtained by treatment with M ppm of the compound I Y: Effective value obtained by treatment with N ppm of the compound II, III or IV E: Effective value expected in treatment with M ppm of the compound I and N ppm of the compound II, III or IV (expected effective value) In addition, a synergistic effect was shown herein by a value calculated by the following Equation 3.

Regarding `CNC(=O)C(OC)c1ccccc1COc1cc(C)ccc1C` (racemic) [Compound II-ii], the Actual effective value turned out to be 4% (0.2 ppm) and 31% (0.8 ppm).

On to `CNC(=O)[C@H](OC)c1ccccc1COc1cc(C)ccc1C` [Compound II-i], for which the Actual effective value came to 14% (0.2 ppm) and 55% (0.8 ppm). For the compound `CNC(=O)/C(=N/OC)c1ccccc1COc1cc(C)ccc1C` [Compound III, (αE)-2-[(2,5-dimethylphenoxy)methyl]-α-(methoxyimino)-N-methylbenzeneacetamino, reference compound], for the setting “0.2 ppm”, the Actual effective value is recorded as 9%.

In the case of `CO/N=C(/C(=O)OC)c1ccccc1CO/N=C(\C)c1cccc(C(F)(F)F)c1` [Compound IV, methyl (E)-methoxyimino-{(E)-α-[1-(α,α,α-trifluoro-m-tolyl]ethylideneaminooxy)-o-tolyl)acetate, reference compound], the Actual effective value (0.2 ppm) came to 28%.

Turning to `C=CCSC(=O)n1c(N)c(-c2ccccc2C)c(=O)n1C(C)C` [Compound I], the Actual effective value (3.1 ppm) is 58%. As for `CO/C=C(/C(=O)OC)c1ccccc1Oc1cc(Oc2ccccc2C#N)ncn1` [Compound V, methyl (E)-2-{2-[6-(2-cyanophenoxy)pyrimidin-4-yloxy]phenyl}-3-methoxyacrylate, reference compound], under “0.2 ppm”, the Actual effective value is 10%.

Regarding `COC(=O)N(OC)c1ccccc1COc1ccn(-c2ccc(Cl)cc2)n1` [Compound VI, methyl 2-[[1-(4-chlorophenyl)-1H-pyrazol-3-yloxymethyl]phenyl](N-methoxy)carbamate, reference compound], for the setting “0.2 ppm”, the Actual effective value came to 29%.
